Experimental data reported in publication PMC11012124, “Synthesis of Novel Triazine-Based Chalcones and 8,9-dihydro-7H-pyrimido[4,5-b][1,4]diazepines as Potential Leads in the Search of Anticancer, Antibacterial and Antifungal Agents” (International Journal of Molecular Sciences, 2024).

How the values were obtained:
Test in all cases: cells
HOP-62 = settings: Homo sapiens, HOP-62, 48 h; for CC50: read-out: LC50
UO-31 = settings: Homo sapiens, UO-31, 48 h; for CC50: read-out: LC50
SK-MEL-2 = settings: Homo sapiens, SK-MEL-2, 48 h; for CC50: read-out: LC50
CAKI-1 = settings: Homo sapiens, CAKI-1, 48 h; for CC50: read-out: LC50
SF-295 = settings: Homo sapiens, SF-295, 48 h; for CC50: read-out: LC50
MDA-MB-468 = settings: Homo sapiens, MDA-MB-468, 48 h; for CC50: read-out: LC50
SNB-19 = settings: Homo sapiens, SNB-19, 48 h; for CC50: read-out: LC50
786-0 = settings: Homo sapiens, 786-0, 48 h; for CC50: read-out: LC50
KM12 = settings: Homo sapiens, KM12, 48 h; for CC50: read-out: LC50
OVCAR-3 = settings: Homo sapiens, OVCAR-3, 48 h; for CC50: read-out: LC50
COLO 205 = settings: Homo sapiens, COLO 205, 48 h; for CC50: read-out: LC50
SK-MEL-5 = settings: Homo sapiens, SK-MEL-5, 48 h; for CC50: read-out: LC50
NCI-H522 = settings: Homo sapiens, NCI-H522, 48 h; for CC50: read-out: LC50
SF-268 = settings: Homo sapiens, SF-268, 48 h; for CC50: read-out: LC50
U251 = settings: Homo sapiens, U-251, 48 h; for GI50: U251, 48 h; for CC50: read-out: LC50
NCI-H322M = settings: Homo sapiens, 48 h; for CC50: read-out: LC50
DU-145 = settings: Homo sapiens, DU-145, 48 h; for CC50: read-out: LC50
OVCAR-4 = settings: Homo sapiens, OVCAR-4, 48 h; for CC50: read-out: LC50
SR = settings: Homo sapiens, 48 h; for CC50: read-out: LC50
T-47D = settings: Homo sapiens, T47D, 48 h; for CC50: read-out: LC50
UACC-62 = settings: Homo sapiens, UACC-62, 48 h; for CC50: read-out: LC50
HCT-15 = settings: Homo sapiens, HCT-15, 48 h; for CC50: read-out: LC50
HT29 = settings: Homo sapiens, HT-29, 48 h; for CC50: read-out: LC50
NCI/ADR-RES = settings: Homo sapiens, 48 h

For `CN(C)c1nc(NCCNS(=O)(=O)c2ccc(C(=O)/C=C/c3ccc(C(F)(F)F)cc3)cc2)nc(N2CCOCC2)n1` [23g], which GI50 (HOP-62) is on record?
Its GI50 is 17 µM.

And the CC50 (HOP-62)?
Its CC50 is 61.3 µM.

What about the GI50 (UO-31) of the same compound?
Its GI50 is 11.9 µM.

And the CC50 (UO-31)?
The CC50 was 49.2 µM.

And the GI50 (SK-MEL-2)?
The GI50 was 16.3 µM.

And the CC50 (SK-MEL-2)?
The CC50 was 56.7 µM.

And the GI50 (CAKI-1)?
Its GI50 is 11.4 µM.

And the CC50 (CAKI-1)?
Its CC50 is 51.7 µM.

And the GI50 (SF-295)?
The GI50 was 8.11 µM.

What about the CC50 (SF-295) of the same compound?
The CC50 was 45.4 µM.

And the GI50 (MDA-MB-468)?
Its GI50 is 5.11 µM.

And the CC50 (MDA-MB-468)?
The CC50 was 48.8 µM.

What about the GI50 (SNB-19) of the same compound?
Its GI50 is 13.5 µM.

What about the CC50 (SNB-19) of the same compound?
The CC50 was 51.3 µM.

What about the GI50 (786-0) of the same compound?
Its GI50 is 14.5 µM.

And the CC50 (786-0)?
Its CC50 is 54.9 µM.

What about the GI50 (KM12) of the same compound?
The GI50 was 8.95 µM.

And the CC50 (KM12)?
Its CC50 is 68.3 µM.

What about the GI50 (OVCAR-3) of the same compound?
Its GI50 is 16.4 µM.

What about the CC50 (OVCAR-3) of the same compound?
Its CC50 is 57.3 µM.

And the GI50 (COLO 205)?
The GI50 was 15 µM.

What about the CC50 (COLO 205) of the same compound?
Its CC50 is 69.8 µM.

What about the GI50 (SK-MEL-5) of the same compound?
The GI50 was 15.8 µM.

What about the CC50 (SK-MEL-5) of the same compound?
Its CC50 is 54.9 µM.

What about the GI50 (NCI-H522) of the same compound?
The GI50 was 15.2 µM.

What about the CC50 (NCI-H522) of the same compound?
The CC50 was 58.2 µM.

And the GI50 (SF-268)?
Its GI50 is 16.3 µM.

What about the CC50 (SF-268) of the same compound?
The CC50 was 87.9 µM.

And the GI50 (U251)?
Its GI50 is 2.95 µM.

And the CC50 (U251)?
The CC50 was 40.7 µM.

What about the GI50 (NCI-H322M) of the same compound?
The GI50 was 14.2 µM.

What about the CC50 (NCI-H322M) of the same compound?
The CC50 was 52.1 µM.

And the GI50 (DU-145)?
The GI50 was 15.4 µM.

What about the CC50 (DU-145) of the same compound?
The CC50 was 54.5 µM.

What about the GI50 (OVCAR-4) of the same compound?
The GI50 was 14.8 µM.

And the CC50 (OVCAR-4)?
The CC50 was 56.5 µM.

What about the GI50 (SR) of the same compound?
Its GI50 is 6.31 µM.

What about the CC50 (SR) of the same compound?
Its CC50 is > 100 µM.

And the GI50 (T-47D)?
The GI50 was 5.5 µM.

What about the CC50 (T-47D) of the same compound?
The CC50 was > 100 µM.

And the GI50 (UACC-62)?
The GI50 was 11.2 µM.

And the CC50 (UACC-62)?
The CC50 was 48.5 µM.

And the GI50 (HCT-15)?
The GI50 was 1.86 µM.

And the CC50 (HCT-15)?
The CC50 was 7.07 µM.

What about the GI50 (HT29) of the same compound?
Its GI50 is 2.06 µM.

What about the CC50 (HT29) of the same compound?
The CC50 was 9.88 µM.

With `COc1cc(/C=C/C(=O)c2ccc(C)cc2)ccc1Oc1nc(NCCO)nc(N2CCOCC2)n1` [20b] as the compound, how does the GI50 (HOP-62) read?
The GI50 was 16.6 µM.

What about the CC50 (HOP-62) of the same compound?
Its CC50 is > 100 µM.

And the GI50 (UO-31)?
Its GI50 is 1.49 µM.

And the GI50 (SK-MEL-2)?
The GI50 was 8.17 µM.

And the CC50 (SK-MEL-2)?
Its CC50 is > 100 µM.

What about the GI50 (CAKI-1) of the same compound?
Its GI50 is 5.02 µM.

What about the CC50 (CAKI-1) of the same compound?
Its CC50 is > 100 µM.

And the CC50 (SF-295)?
The CC50 was > 100 µM.

What about the GI50 (MDA-MB-468) of the same compound?
Its GI50 is 1.98 µM.

What about the GI50 (SNB-19) of the same compound?
Its GI50 is 2.45 µM.

What about the CC50 (SNB-19) of the same compound?
Its CC50 is > 100 µM.

What about the GI50 (786-0) of the same compound?
Its GI50 is 2.18 µM.

What about the CC50 (786-0) of the same compound?
Its CC50 is > 100 µM.

And the GI50 (KM12)?
Its GI50 is 1.85 µM.

What about the GI50 (OVCAR-3) of the same compound?
The GI50 was 2.49 µM.

And the CC50 (OVCAR-3)?
The CC50 was > 100 µM.

And the GI50 (COLO 205)?
Its GI50 is 2.64 µM.

What about the CC50 (COLO 205) of the same compound?
The CC50 was > 100 µM.

What about the GI50 (SK-MEL-5) of the same compound?
Its GI50 is 2 µM.

What about the GI50 (NCI-H522) of the same compound?
The GI50 was 1.56 µM.

And the GI50 (SF-268)?
Its GI50 is 2.9 µM.

And the CC50 (SF-268)?
Its CC50 is > 100 µM.

What about the GI50 (U251) of the same compound?
The GI50 was 1.62 µM.

And the GI50 (NCI-H322M)?
The GI50 was 6.24 µM.

And the CC50 (NCI-H322M)?
Its CC50 is > 100 µM.

And the GI50 (DU-145)?
Its GI50 is 3.79 µM.

What about the CC50 (DU-145) of the same compound?
Its CC50 is > 100 µM.

What about the GI50 (OVCAR-4) of the same compound?
The GI50 was 3.92 µM.

What about the CC50 (OVCAR-4) of the same compound?
The CC50 was > 100 µM.

What about the GI50 (SR) of the same compound?
Its GI50 is 1.06 µM.

What about the CC50 (SR) of the same compound?
The CC50 was > 100 µM.

And the GI50 (T-47D)?
Its GI50 is 2.98 µM.

What about the CC50 (T-47D) of the same compound?
The CC50 was > 100 µM.

What about the GI50 (UACC-62) of the same compound?
Its GI50 is 2.01 µM.

And the GI50 (NCI/ADR-RES)?
Its GI50 is 2.08 µM.

And the CC50 (NCI/ADR-RES; read-out: LC50)?
The CC50 was > 100 µM.

And the GI50 (HCT-15)?
The GI50 was 1.78 µM.

What about the CC50 (HCT-15) of the same compound?
The CC50 was > 100 µM.

And the GI50 (HT29)?
Its GI50 is 1.85 µM.

With `CN(C)c1nc(NCCNS(=O)(=O)c2ccc(C(=O)/C=C/c3ccccc3)cc2)nc(N2CCOCC2)n1` [23a] as the compound, how does the GI50 (HOP-62) read?
Its GI50 is 16.4 µM.

What about the CC50 (HOP-62) of the same compound?
The CC50 was 62.7 µM.

And the GI50 (UO-31)?
The GI50 was 11.2 µM.

And the CC50 (UO-31)?
The CC50 was 55.7 µM.

And the GI50 (SK-MEL-2)?
Its GI50 is 15.3 µM.

And the CC50 (SK-MEL-2)?
Its CC50 is 56.9 µM.

What about the GI50 (CAKI-1) of the same compound?
The GI50 was 12.2 µM.

And the CC50 (CAKI-1)?
The CC50 was 49.9 µM.

And the GI50 (SF-295)?
The GI50 was 15.6 µM.

And the CC50 (SF-295)?
The CC50 was 59.5 µM.

What about the GI50 (MDA-MB-468) of the same compound?
The GI50 was 4.17 µM.

What about the CC50 (MDA-MB-468) of the same compound?
The CC50 was 49.9 µM.

And the GI50 (SNB-19)?
Its GI50 is 14.8 µM.

What about the CC50 (SNB-19) of the same compound?
The CC50 was 57.3 µM.

And the GI50 (786-0)?
The GI50 was 14.8 µM.

And the CC50 (786-0)?
The CC50 was 57.1 µM.

What about the GI50 (KM12) of the same compound?
Its GI50 is 2 µM.

And the CC50 (KM12)?
The CC50 was 8.93 µM.

And the GI50 (OVCAR-3)?
Its GI50 is 15.3 µM.

What about the CC50 (OVCAR-3) of the same compound?
Its CC50 is 53.4 µM.

What about the GI50 (COLO 205) of the same compound?
The GI50 was 20.2 µM.

And the CC50 (COLO 205)?
The CC50 was 80.7 µM.

And the GI50 (SK-MEL-5)?
Its GI50 is 15.9 µM.

What about the CC50 (SK-MEL-5) of the same compound?
Its CC50 is 54.3 µM.

And the GI50 (NCI-H522)?
Its GI50 is 13.6 µM.

And the CC50 (NCI-H522)?
Its CC50 is 54.1 µM.

And the GI50 (SF-268)?
The GI50 was 13.7 µM.

And the CC50 (SF-268)?
The CC50 was 70.1 µM.

And the GI50 (U251)?
The GI50 was 11.7 µM.

And the CC50 (U251)?
Its CC50 is 57.2 µM.

What about the GI50 (NCI-H322M) of the same compound?
The GI50 was 14.8 µM.

What about the CC50 (NCI-H322M) of the same compound?
Its CC50 is 56.5 µM.

What about the GI50 (DU-145) of the same compound?
Its GI50 is 15.1 µM.

And the CC50 (DU-145)?
The CC50 was 53.3 µM.

What about the GI50 (OVCAR-4) of the same compound?
The GI50 was 14.3 µM.

And the CC50 (OVCAR-4)?
The CC50 was 54 µM.

What about the GI50 (SR) of the same compound?
The GI50 was 3.2 µM.

And the CC50 (SR)?
The CC50 was > 100 µM.

And the GI50 (T-47D)?
Its GI50 is 16 µM.

What about the CC50 (T-47D) of the same compound?
The CC50 was 87.4 µM.

What about the GI50 (UACC-62) of the same compound?
The GI50 was 12 µM.

And the CC50 (UACC-62)?
The CC50 was 52.3 µM.

And the GI50 (HCT-15)?
The GI50 was 5.21 µM.

And the CC50 (HCT-15)?
The CC50 was 61.7 µM.

What about the GI50 (HT29) of the same compound?
Its GI50 is 3.8 µM.

And the CC50 (HT29)?
The CC50 was 43.9 µM.
